From US8497278B2, “Imidazo[1,2-a]pyridine compounds” (priority 2008, dated 2013)

What was measured:
[1] = test system: central benzodiazepine receptors; assay: Central benzodiazepine receptor binding (test of Speth et al.); conditions: 1000 nM of the compound
In short: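 Values are percent inhibition of central benzodiazepine receptor binding at 1000 nM compound (initial single-point screen at 1.0E-09, 1.0E-07 and 1.0E-05 M). Speth et al. binding test; nonspecific binding defined with excess unlabelled ligand and subtracted from total.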

[2] = molecular target: T1, α1 subtype containing GABA-A receptors (Homo sapiens, UniProt P14867+P18507); assay: Two-electrode voltage clamp electrophysiology in Xenopus oocytes, potentiation of GABA EC20 response, α1; format: cell-based; conditions: 100 nM compound; for activation at 0.1 µM: read-out: Percentage of potentiation alpha1
T1 construct: expressed in transfected cells; host or cells: Xenopus laevis oocytes, cRNA injected
In short: (§1)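 Test compounds (100 nM) were assessed for enhancement of a 60 μM (EC20) GABA current in two-electrode-clamped oocytes (−80 mV, ND96 pH 7.5) injected with human αx (1, 2, 3 or 5), β3 and γ2L cRNA. Each oocyte received a 1 μM chlordiazepoxide standard first and was excluded if expression or γ2L incorporation was insufficient.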

[3] = molecular target: T2, α2 subtype containing GABA-A receptors (Homo sapiens, UniProt P18507+P47869); assay: Two-electrode voltage clamp electrophysiology in Xenopus oocytes, potentiation of GABA EC20 response, α2; format: cell-based; conditions: 100 nM compound; for activation at 0.1 µM: read-out: Percentage of potentiation alpha2
T2 construct: expressed in transfected cells; host or cells: Xenopus laevis oocytes, cRNA injected
In short: as §1

[4] = molecular target: T3, α3 subtype containing GABA-A receptors (Homo sapiens, UniProt P18507+P34903); assay: Two-electrode voltage clamp electrophysiology in Xenopus oocytes, potentiation of GABA EC20 response, α3; format: cell-based; conditions: 100 nM compound; for activation at 0.1 µM: read-out: Percentage of potentiation alpha3
T3 construct: expressed in transfected cells; host or cells: Xenopus laevis oocytes, cRNA injected
Description: (§2) Electrophysiology protocol: Oocytes were prepared from adult female Xenopus laevis frogs. cRNA encoding human α1, α2, α3, α5, β3 and γ2L GABAA receptor subunits was injected into the cytoplasm of stage 5 or 6 oocytes using the Robocyte Robot (Multi Channel Systems, Reutlingen, Germany). Two-electrode voltage clamp recordings were made in 96-well plates using the Robocyte Robot. Oocytes were impaled using recording heads with two glass electrodes containing 1.5 M potassium acetate and 0.5 M KCl and held at a membrane potential of −80 mV. Oocytes were continually perfused with a ND96 solution (96 mM NaCl, 2 mM KCl, 0.1 mM CaCl2, and 5 mM HEPES, pH 7.5) using a Gilson 222 XL Liquid Handler and Gilson Minipuls 3 Peristaltic Pump (Gilson Medical Electronics, Middleton, Wis., USA). The protocol consisted of three 20-s applications of GABA that gave a 20% of the maximum response (EC20: 60 μM) to allow for headroom to determine a baseline GABA response. To assess the potentiation, oocytes were first exposed to a single 1 μM chlordiazepoxide (CDP) as a potentiation standard. Oocytes with insufficient expression levels (currents below threshold) or insufficient γ2L subunit incorporation (judged by rapid desensitization upon GABA application, or by insufficient potentiation by CDP) were not included in analysis. Following this control application, a given oocyte was exposed to test compounds at 100 nM concentrations. Only one concentration of one compound was tested per oocyte. […] One skilled in the art will recognize that subtypes contribute to the effects of GABA-A modulators. Such that compounds favoring different subtypes can have different therapeutic effects. The magnitude of modulation, for example, partial modulators can influence the effects in vivo. “++” indicates a greater modulation that “+” so that at any given subtype “++” inducates a greater amount of modulation for that subtype. In some embodiments, modulation favoring alpha 1 relative to alpha2 and/or alpha 3 can have sedative hypnotic effects. In other embodiments, compounds with reduced selectivity of alpha 1 can express anxiolytic effects with less sedation. Compounds with selectivity for alpha 5 can have memory/cognition enhancing effects.

[5] = molecular target: T4, α5 subtype containing GABA-A receptors (Homo sapiens, UniProt P18507+P31644); assay: Two-electrode voltage clamp electrophysiology in Xenopus oocytes, potentiation of GABA EC20 response, α5; format: cell-based; conditions: 100 nM compound; for activation at 0.1 µM: read-out: Percentage of potentiation alpha5
T4 construct: expressed in transfected cells; host or cells: Xenopus laevis oocytes, cRNA injected
Description: as §2

T4 sequence (P31644 32-462): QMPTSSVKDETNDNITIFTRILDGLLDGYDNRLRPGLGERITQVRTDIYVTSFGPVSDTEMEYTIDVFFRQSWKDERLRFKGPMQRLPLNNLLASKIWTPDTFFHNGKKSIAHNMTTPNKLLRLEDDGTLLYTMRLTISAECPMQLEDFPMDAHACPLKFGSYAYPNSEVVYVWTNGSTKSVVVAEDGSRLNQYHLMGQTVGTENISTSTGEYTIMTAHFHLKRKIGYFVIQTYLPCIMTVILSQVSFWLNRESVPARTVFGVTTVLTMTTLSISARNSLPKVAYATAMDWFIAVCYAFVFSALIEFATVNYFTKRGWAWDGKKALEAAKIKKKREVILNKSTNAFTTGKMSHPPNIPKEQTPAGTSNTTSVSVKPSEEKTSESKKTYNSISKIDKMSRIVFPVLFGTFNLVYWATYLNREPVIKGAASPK
T4 sequence (P28472 26-473 partner): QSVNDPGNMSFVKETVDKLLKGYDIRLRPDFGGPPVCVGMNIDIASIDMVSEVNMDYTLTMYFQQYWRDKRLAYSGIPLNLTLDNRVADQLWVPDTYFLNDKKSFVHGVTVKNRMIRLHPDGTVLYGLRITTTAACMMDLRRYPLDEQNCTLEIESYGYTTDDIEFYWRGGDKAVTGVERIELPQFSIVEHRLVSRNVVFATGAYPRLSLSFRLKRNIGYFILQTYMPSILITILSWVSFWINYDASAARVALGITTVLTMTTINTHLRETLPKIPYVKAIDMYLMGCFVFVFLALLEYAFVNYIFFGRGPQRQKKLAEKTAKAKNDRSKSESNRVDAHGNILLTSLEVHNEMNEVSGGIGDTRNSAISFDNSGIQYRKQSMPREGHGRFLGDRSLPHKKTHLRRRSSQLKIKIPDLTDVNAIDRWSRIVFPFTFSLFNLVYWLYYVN
T4 sequence (P18507 40-475): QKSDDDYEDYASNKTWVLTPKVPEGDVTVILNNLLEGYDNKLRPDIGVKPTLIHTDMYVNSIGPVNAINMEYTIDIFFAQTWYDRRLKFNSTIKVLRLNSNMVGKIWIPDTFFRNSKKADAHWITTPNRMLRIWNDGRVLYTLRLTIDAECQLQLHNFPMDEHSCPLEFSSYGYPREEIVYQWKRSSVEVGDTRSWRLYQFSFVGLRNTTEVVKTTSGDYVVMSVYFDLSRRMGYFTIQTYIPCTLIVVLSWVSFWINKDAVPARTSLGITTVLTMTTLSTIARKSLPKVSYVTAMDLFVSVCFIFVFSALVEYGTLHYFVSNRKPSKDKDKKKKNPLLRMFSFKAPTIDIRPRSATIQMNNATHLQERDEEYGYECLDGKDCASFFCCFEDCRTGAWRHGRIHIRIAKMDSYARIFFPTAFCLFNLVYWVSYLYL
T3 sequence (P34903 29-492): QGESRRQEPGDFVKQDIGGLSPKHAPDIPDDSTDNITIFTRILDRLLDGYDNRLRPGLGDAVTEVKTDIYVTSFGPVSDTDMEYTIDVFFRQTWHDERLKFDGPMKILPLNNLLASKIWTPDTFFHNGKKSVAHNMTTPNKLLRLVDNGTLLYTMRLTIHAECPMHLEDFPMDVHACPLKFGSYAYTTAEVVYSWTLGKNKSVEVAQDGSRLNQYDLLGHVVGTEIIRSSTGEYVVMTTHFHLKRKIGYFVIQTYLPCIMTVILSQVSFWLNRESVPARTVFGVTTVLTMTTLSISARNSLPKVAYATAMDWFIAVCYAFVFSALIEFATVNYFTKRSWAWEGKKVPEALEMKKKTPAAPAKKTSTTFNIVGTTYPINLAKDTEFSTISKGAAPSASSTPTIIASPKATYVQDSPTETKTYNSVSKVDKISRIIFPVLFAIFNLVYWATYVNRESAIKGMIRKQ
T3 sequence (P28472 26-473 partner): as the sequence (P28472 26-473 partner) above
T3 sequence (P18507 40-475): as the sequence (P18507 40-475) above
T2 sequence (P47869 29-451): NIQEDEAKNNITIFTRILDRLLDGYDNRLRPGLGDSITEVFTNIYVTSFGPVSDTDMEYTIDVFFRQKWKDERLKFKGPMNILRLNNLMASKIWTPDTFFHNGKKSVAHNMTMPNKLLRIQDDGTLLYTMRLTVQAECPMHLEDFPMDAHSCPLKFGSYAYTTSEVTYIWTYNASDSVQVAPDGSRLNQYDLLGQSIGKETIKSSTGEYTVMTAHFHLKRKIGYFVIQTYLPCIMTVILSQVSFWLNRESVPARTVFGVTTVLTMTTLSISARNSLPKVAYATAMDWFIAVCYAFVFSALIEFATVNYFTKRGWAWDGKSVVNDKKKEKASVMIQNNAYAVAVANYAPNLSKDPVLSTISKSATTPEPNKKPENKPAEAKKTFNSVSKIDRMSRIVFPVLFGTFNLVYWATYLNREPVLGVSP
T2 sequence (P28472 26-473 partner): as the sequence (P28472 26-473 partner) above
T2 sequence (P18507 40-475): as the sequence (P18507 40-475) above
T1 sequence (P14867 28-456): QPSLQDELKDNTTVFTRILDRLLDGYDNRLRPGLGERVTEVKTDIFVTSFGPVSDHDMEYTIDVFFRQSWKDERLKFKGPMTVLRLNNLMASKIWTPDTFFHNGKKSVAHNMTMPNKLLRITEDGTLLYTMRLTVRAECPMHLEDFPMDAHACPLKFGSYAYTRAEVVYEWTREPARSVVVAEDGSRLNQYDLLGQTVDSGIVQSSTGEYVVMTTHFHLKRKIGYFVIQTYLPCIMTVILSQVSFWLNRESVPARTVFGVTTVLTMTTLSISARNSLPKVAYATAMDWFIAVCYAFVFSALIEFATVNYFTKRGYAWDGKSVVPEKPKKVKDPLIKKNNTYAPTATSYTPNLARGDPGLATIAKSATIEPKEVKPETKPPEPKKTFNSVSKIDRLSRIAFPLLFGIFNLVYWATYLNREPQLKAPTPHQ
T1 sequence (P28472 26-473 partner): as the sequence (P28472 26-473 partner) above
T1 sequence (P18507 40-475): as the sequence (P18507 40-475) above

| SMILES | % Inhibition at 1000 nM for CBZD [1] | Percentage of potentiation alpha1 [2] | Percentage of potentiation alpha2 [3] | Percentage of potentiation alpha3 [4] | Percentage of potentiation alpha5 [5] | activation at 0.1 µM [2] [%] | activation at 0.1 µM [3] [%] | activation at 0.1 µM [4] [%] | activation at 0.1 µM [5] [%] |
| --- | --- | --- | --- | --- | --- | --- | --- | --- | --- |
| Cc1ccc(-c2nc3ccc(C)cn3c2Cn2cnc3c(N(C)C)ncnc32)cc1 [Compound 17, N,N-Dimethyl-9-((6-methyl-2-p-tolylH-imidazo[1,2-a]pyridin-3-yl)methyl)-9H-purin-6-amine] | ++ (percentage of inhibition of central BZD site binding is greater than 80% in the presence of 1000 nM of the compound) | + (percentage of potentiation is greater than or equal to 10% but less than 50% in the presence of 100 nM of the compound) | + (percentage of potentiation is greater than or equal to 10% but less than 50% in the presence of 100 nM of the compound) | 0 (percentage of potentiation is between about 10% to about −10%) | 0 (percentage of potentiation is between about 10% to about −10%) |  |  |  |  |
| COC(=O)c1ncnn1Cc1c(-c2ccc(Cl)cc2)nc2ccc(Cl)cn12 [Compound 21, Methyl 2-((6-chloro-2-(4-chlorophenyl)H-imidazo[1,2-a]pyridin-3-yl)methyl)-2H-1,2,4-triazole-3-carboxylate] | ++ (percentage of inhibition of central BZD site binding is greater than 80% in the presence of 1000 nM of the compound) | + (percentage of potentiation is greater than or equal to 10% but less than 50% in the presence of 100 nM of the compound) | + (percentage of potentiation is greater than or equal to 10% but less than 50% in the presence of 100 nM of the compound) | + (percentage of potentiation is greater than or equal to 10% but less than 50% in the presence of 100 nM of the compound) | 0 (percentage of potentiation is between about 10% to about −10%) |  |  |  |  |
| CC(C)OC(=O)c1ncnn1Cc1c(-c2ccc(Cl)cc2)nc2ccc(Cl)cn12 [Compound 23, 2-[6-Chloro-2-(4-chloro-phenyl)-imidazo[1,2-a]pyridin-3-ylmethyl]-2H-[1,2,4]triazole-3-carboxylic acid isopropyl ester] | ++ (percentage of inhibition of central BZD site binding is greater than 80% in the presence of 1000 nM of the compound) |  |  |  |  | 10 to 50 | 10 to 50 | 10 to 50 | -10 to 10 |
| Clc1ccc(-c2nc3ccccn3c2Cn2nccn2)cc1 [Compound 39, 2-(4-Chloro-phenyl)-3-[1,2,3]triazol-2-ylmethyl-imidazo[1,2-a]pyridine] | ++ (percentage of inhibition of central BZD site binding is greater than 80% in the presence of 1000 nM of the compound) |  |  |  |  | 10 to 50 | 10 to 50 | 10 to 50 | -10 to 10 |
| Fc1ccc2nc(-c3ccc(Cl)cc3)c(Cn3nnc4ccccc43)n2c1 [Compound 58, 1-((2-(4-chlorophenyl)-6-fluoroH-imidazo[1,2-a]pyridin-3-yl)methyl)-1H-benzo[d][1,2,3]triazole] | ++ (percentage of inhibition of central BZD site binding is greater than 80% in the presence of 1000 nM of the compound) | + (percentage of potentiation is greater than or equal to 10% but less than 50% in the presence of 100 nM of the compound) | + (percentage of potentiation is greater than or equal to 10% but less than 50% in the presence of 100 nM of the compound) | 0 (percentage of potentiation is between about 10% to about −10%) | 0 (percentage of potentiation is between about 10% to about −10%) |  |  |  |  |
| O=c1n(Cc2c(-c3ccc(Cl)cc3)nc3ccccn23)nc2ccccn12 [Compound 119, 2-((2-(4-chlorophenyl)imidazo[1,2-a]pyridin-3-yl)methyl)-[1,2,4]triazolo[4,3-a]pyridin-3(2H)-one] | ++ (percentage of inhibition of central BZD site binding is greater than 80% in the presence of 1000 nM of the compound) |  |  |  |  | -10 to 10 | 10 to 50 | -10 to 10 | -10 to 10 |
| O=c1cc(Cl)n(Cc2c(-c3ccc(Cl)cc3)nc3ccccn23)c(=O)[nH]1 [Compound 128, 6-chloro-1-((2-(4-chlorophenyl)imidazo[1,2-a]pyridin-3-yl)methyl)pyrimidine-2,4(1H,3H)-dione] | ++ (percentage of inhibition of central BZD site binding is greater than 80% in the presence of 1000 nM of the compound) |  |  |  |  | -10 to 10 | 10 to 50 | -10 to 10 | 10 to 50 |
| CNc1ccn(Cc2c(-c3ccc(Cl)cc3)nc3ccccn23)c(=O)n1 [Compound 133, 1-((2-(4-chlorophenyl)imidazo[1,2-a]pyridin-3-yl)methyl)-4-(methylamino)pyrimidin-2(1H)-one] | ++ (percentage of inhibition of central BZD site binding is greater than 80% in the presence of 1000 nM of the compound) |  |  |  |  | 10 to 50 | ≥ 50 | -10 to 10 | -10 to 10 |
| Cc1ccc(-c2nc3ccc(C)cn3c2CNc2ncccn2)cc1 [Compound 139, N-((6-methyl-2-p-tolylH-imidazo[1,2-a]pyridin-3-yl)methyl)pyrimidin-2-amine] | ++ (percentage of inhibition of central BZD site binding is greater than 80% in the presence of 1000 nM of the compound) |  |  |  |  | 10 to 50 | 10 to 50 | -10 to 10 | -10 to 10 |
| Cc1ccnc(NCc2c(-c3ccccc3)nc3ccc(Cl)cn23)n1 [Compound 158, (6-Chloro-2-phenyl-imidazo[1,2-a]pyridin-3-ylmethyl)-(4-methyl-pyrimidin-2-yl)-amine] | ++ (percentage of inhibition of central BZD site binding is greater than 80% in the presence of 1000 nM of the compound) |  |  |  |  | -10 to 10 | 10 to 50 | 10 to 50 | -10 to 10 |
| Cc1nnc(Cc2c(-c3ccccc3)nc3ccc(Cl)cn23)o1 [Compound 205, 2-((6-chloro-2-phenylimidazo[1,2-a]pyridin-3-yl)methyl)-5-methyl-1,3,4-oxadiazole] | ++ (percentage of inhibition of central BZD site binding is greater than 80% in the presence of 1000 nM of the compound) |  |  |  |  | -10 to 10 | -10 to 10 | -10 to 10 | -10 to 10 |
| Clc1ccc(-c2nc3ccccn3c2Cc2nnc(-c3ccccn3)[nH]2)cc1 [Compound 230, 2-(4-chlorophenyl)-3-((5-(pyridin-2-yl)-4H-1,2,4-triazol-3-yl)methyl)imidazo[1,2-a]pyridine] | ++ (percentage of inhibition of central BZD site binding is greater than 80% in the presence of 1000 nM of the compound) |  |  |  |  | 10 to 50 | 10 to 50 | 10 to 50 | 10 to 50 |
| O=C1C=C(N2CCC(O)C2)CN1Cc1c(-c2ccc(Cl)cc2)nc2ccccn12 (centres unmarked) [Compound 240, 1-((2-(4-chlorophenyl)imidazo[1,2-a]pyridin-3-yl)methyl)-4-(3-hydroxypyrrolidin-1-yl)-1H-pyrrol-2(5H)-one] | ++ (percentage of inhibition of central BZD site binding is greater than 80% in the presence of 1000 nM of the compound) |  |  |  |  | ≥ 50 | 10 to 50 | -10 to 10 | -10 to 10 |
